# Test results from publication PMC6177136, “Hybrid topoisomerase I and HDAC inhibitors as dual action anticancer agents” (PLoS ONE, 2018).
# Columns and labels:
# MM404 = assay: Cytotoxicity assay, primary mesothelioma MM404; format: cell-based, Human; settings: epithelioid, 72 h, SBR assay; read-out: IC50 ± SD MM404
# MM491 = assay: Cytotoxicity assay, primary mesothelioma MM491; format: cell-based, Human; settings: biphasic, 72 h, SBR assay; read-out: IC50 ± SD MM491
# MM472 = assay: Cytotoxicity assay, primary mesothelioma MM472; format: cell-based, Human; settings: sarcomatoid, 72 h, SBR assay; read-out: IC50 ± SD MM472
# MM481 = assay: Cytotoxicity assay, primary mesothelioma MM481; format: cell-based, Human; settings: epithelioid, 72 h, SBR assay; read-out: IC50 ± SD MM481
# MM473 = assay: Cytotoxicity assay, primary mesothelioma MM473; format: cell-based, Human; settings: epithelioid, 72 h, SBR assay; read-out: IC50 ± SD MM473
# MM288 = assay: Cytotoxicity assay, primary mesothelioma MM288; format: cell-based, Human; settings: epithelioid, 72 h, SBR assay; read-out: IC50 ± SD MM288
# MM432 = assay: Cytotoxicity assay, primary mesothelioma MM432; format: cell-based, Human; settings: sarcomatoid, 72 h, SBR assay; read-out: IC50 ± SD MM432
# MM487 = assay: Cytotoxicity assay, primary mesothelioma MM487; format: cell-based, Human; settings: biphasic, 72 h, SBR assay; read-out: IC50 ± SD MM487
# MM317 = assay: Cytotoxicity assay, primary mesothelioma MM317; format: cell-based, Human; settings: epithelioid, 72 h, SBR assay; read-out: IC50 ± SD MM317
# HDAC1 = HDAC1 (Homo sapiens, UniProt Q13547); assay: HDAC profiling HDAC1; format: biochemical; settings: purified isoform, 10 concentrations from 10 μM, triplicate
# A2780 = assay: Cytotoxicity assay (SRB, 72 h) A2780; format: cell-based, Human; settings: Homo sapiens, A2780, read-out: IC50 ± SD A2780
# NCI-H460 = assay: Cytotoxicity assay (SRB, 72 h) NCI-H460; format: cell-based, Human; settings: Homo sapiens; for IC50: NCI-H460, 72 h, SRB assay, read-out: IC50 ± SD NCI-H460
# A431 = assay: Cytotoxicity assay (SRB, 72 h) A431; format: cell-based, Human; settings: Homo sapiens, A-431, read-out: IC50 ± SD A431
# HDAC2 = HDAC2 (Homo sapiens, UniProt Q92769); assay: HDAC profiling HDAC2; format: biochemical; settings: purified isoform, 10 concentrations from 10 μM, triplicate
# Acetylated Histone H4 = assay: Western blot, acetylation of histone H4 in NCI-H460 cells; format: cell-based, Human; settings: 24 h; SN38 0.05 μM, SAHA 5 μM, 3b and 3d 0.125–0.2–0.5 μM
# Protocol: (§1) The supernatant, containing the total proteins extracts, were transferred in new vials. The protein concentration was measured by Bradford Protein Assay. Equal amounts of proteins for each sample were then resolved by SDS-PAGE and loaded on 10–12% polyacrilamide gels. The proteins were then transferred on nitrocellulose membranes. Molecular weights were estimated based upon the relative migration with molecular weight protein markers.
# (§2) The non-specific binding was blocked by incubation of membranes in TBS-tween (25 mM Tris, 150 mM NaCl, 0.1% Tween 20) with 5% nonfat dry milk (BIORAD, Milan) for 60 minutes. Subsequently, the membrane was incubated overnight with primary antibodies: anti-Histone H4 (Millipore, 1:500), anti-acetyl-H4 (Santa Cruz, 1:1000) anti-p21 (Santa Cruz, 1:1000), anti-acetyl-tubulin (abcam, 1:1000), anti-α-tubulin (Sigma, 1:5000), anti β-actin (Sigma, 1:5000) and anti-Topoisomerase 1 (Santa Cruz, 1:500). After three washes with TBST blots were incubated with HRP-coniugated secondary anti-mouse and anti-rabbit (Santa Cruz, 1:5000) 1 hour at room temperature. After three washes with TBST the blots were developed with ECL substrate (GE Healthcare) and chemiluminescence detected by ChemiDoc Imaging System (Biorad). The optical density of the protein bands detected by western blotting was normalized on α -tubulin levels and analyzed by ChemiDoc software (Biorad). […]
# Capan 1 = assay: Cytotoxicity assay (SRB, 72 h) Capan 1; format: cell-based, Human; settings: Homo sapiens, CAPAN-1, read-out: IC50 ± SD Capan 1
# A2780-Dx = assay: Cytotoxicity assay (SRB, 72 h) A2780-Dx; format: cell-based, Human; settings: for RI (Resistance Index): A2780-Dx versus A2780; for IC50: Homo sapiens, A2780/DX, 72 h, SRB assay, multidrug-resistant ovarian carcinoma, read-out: IC50 ± SD A2780-Dx
# HeLa = assay: Cytotoxicity assay (SRB, 72 h) HeLa; format: cell-based, Human; settings: Homo sapiens, HeLa, read-out: IC50 ± SD HeLa
# HDAC10 = HDAC10 (Homo sapiens, UniProt Q969S8); assay: HDAC profiling HDAC10; format: biochemical; settings: purified isoform, 10 concentrations from 10 μM, triplicate
# HDAC6 = HDAC6 (Homo sapiens, UniProt Q9UBN7); assay: HDAC profiling HDAC6; format: biochemical; settings: purified isoform, 10 concentrations from 10 μM, triplicate
# Acetylated Tubulin = assay: Western blot, acetylation of tubulin in NCI-H460 cells; format: cell-based, Human; settings: 24 h; SN38 0.05 μM, SAHA 5 μM, 3b and 3d 0.125–0.2–0.5 μM
# Protocol: as §1, §2
# HDAC6, sequence (Q9UBN7 whole entry, canonical isoform): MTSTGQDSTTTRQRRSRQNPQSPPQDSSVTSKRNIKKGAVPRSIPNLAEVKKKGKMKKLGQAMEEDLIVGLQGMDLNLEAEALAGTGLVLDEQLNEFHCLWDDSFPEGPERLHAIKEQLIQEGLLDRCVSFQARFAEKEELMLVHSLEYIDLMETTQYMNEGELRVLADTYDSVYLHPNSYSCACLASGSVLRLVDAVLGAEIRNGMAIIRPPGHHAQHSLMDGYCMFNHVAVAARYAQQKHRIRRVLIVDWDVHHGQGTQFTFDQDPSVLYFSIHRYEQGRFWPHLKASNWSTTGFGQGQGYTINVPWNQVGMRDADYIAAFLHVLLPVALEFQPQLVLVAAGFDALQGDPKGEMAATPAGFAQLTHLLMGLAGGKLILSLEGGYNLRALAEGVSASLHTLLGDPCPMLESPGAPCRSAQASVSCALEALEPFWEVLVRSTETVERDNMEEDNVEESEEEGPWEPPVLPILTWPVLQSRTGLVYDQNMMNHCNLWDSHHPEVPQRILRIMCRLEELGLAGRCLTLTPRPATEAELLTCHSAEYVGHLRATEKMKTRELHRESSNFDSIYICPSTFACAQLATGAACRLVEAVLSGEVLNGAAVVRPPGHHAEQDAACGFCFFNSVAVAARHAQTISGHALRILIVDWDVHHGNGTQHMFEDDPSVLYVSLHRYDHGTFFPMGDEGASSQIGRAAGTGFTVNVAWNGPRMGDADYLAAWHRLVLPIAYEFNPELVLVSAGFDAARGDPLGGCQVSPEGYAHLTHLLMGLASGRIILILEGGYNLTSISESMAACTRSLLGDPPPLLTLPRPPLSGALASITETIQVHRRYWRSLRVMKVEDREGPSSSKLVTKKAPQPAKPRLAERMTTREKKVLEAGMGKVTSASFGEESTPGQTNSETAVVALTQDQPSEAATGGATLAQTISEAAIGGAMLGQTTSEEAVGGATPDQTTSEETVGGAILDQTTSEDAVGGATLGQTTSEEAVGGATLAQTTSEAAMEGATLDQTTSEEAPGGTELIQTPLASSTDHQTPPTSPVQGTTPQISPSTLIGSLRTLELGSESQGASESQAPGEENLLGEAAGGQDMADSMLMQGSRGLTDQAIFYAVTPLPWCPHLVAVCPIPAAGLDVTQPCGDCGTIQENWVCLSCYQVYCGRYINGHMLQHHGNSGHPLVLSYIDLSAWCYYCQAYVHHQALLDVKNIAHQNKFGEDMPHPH
# HDAC2, sequence (Q92769 whole entry, canonical isoform): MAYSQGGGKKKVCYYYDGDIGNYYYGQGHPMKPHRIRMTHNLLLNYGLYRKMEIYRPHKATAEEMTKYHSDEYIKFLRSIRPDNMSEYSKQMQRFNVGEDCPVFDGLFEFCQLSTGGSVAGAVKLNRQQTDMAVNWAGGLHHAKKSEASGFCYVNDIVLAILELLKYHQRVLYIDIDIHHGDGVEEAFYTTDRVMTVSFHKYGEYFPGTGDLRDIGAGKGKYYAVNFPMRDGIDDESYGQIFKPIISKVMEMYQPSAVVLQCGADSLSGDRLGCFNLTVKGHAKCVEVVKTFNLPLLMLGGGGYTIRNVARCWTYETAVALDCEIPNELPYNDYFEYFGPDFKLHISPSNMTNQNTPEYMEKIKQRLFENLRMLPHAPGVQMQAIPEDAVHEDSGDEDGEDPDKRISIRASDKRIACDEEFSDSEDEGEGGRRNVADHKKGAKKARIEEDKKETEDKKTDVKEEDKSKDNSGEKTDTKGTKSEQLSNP
# HDAC1, sequence (Q13547 whole entry, canonical isoform): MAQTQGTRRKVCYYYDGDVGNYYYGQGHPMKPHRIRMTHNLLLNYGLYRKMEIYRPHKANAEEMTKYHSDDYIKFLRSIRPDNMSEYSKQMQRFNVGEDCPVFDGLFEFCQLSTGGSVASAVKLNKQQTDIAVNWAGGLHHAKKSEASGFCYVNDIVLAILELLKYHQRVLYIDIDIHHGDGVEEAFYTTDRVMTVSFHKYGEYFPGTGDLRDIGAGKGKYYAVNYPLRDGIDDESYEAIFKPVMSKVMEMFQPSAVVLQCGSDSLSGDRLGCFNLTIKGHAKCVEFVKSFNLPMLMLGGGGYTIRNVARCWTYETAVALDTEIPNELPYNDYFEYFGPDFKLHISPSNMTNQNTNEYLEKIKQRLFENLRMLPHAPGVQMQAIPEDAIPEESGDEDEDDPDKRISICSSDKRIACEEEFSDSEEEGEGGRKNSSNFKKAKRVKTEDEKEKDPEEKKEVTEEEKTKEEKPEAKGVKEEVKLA
# HDAC10, sequence (Q969S8 whole entry, canonical isoform): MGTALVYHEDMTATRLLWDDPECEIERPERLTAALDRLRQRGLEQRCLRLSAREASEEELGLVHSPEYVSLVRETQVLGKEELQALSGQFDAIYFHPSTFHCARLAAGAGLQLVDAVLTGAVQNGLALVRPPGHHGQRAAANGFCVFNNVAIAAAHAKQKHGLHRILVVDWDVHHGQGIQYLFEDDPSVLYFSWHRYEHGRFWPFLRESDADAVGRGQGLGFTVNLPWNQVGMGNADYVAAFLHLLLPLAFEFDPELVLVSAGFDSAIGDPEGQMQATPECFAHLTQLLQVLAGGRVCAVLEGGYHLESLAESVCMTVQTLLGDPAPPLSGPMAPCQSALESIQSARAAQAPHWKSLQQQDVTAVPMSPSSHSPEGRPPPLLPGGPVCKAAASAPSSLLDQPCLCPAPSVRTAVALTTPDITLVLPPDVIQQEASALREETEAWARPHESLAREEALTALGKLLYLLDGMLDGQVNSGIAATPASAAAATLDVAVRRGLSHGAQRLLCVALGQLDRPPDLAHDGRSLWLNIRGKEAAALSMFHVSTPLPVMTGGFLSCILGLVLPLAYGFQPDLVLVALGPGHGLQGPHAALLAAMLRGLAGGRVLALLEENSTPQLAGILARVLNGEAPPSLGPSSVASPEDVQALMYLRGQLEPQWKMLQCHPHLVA
smiles,measurement,setting,value
N.N.[Cl][Pt][Cl] [Cisplatin],IC50,MM404,2400 ± 500 nM
same,IC50,MM491,6500 ± 900 nM
same,IC50,MM472,1260 ± 100 nM
same,IC50,MM481,7000 ± 1500 nM
same,IC50,MM473,2400 ± 200 nM
same,IC50,MM288,8100 ± 300 nM
same,IC50,MM432,5000 ± 800 nM
same,IC50,MM487,3000 ± 500 nM
same,IC50,MM317,4200 ± 600 nM
"CC[C@@]1(O)C(=O)OCc2c1cc1n(c2=O)Cc2c-1nc1ccccc1c2C=NOCCCCCC(=O)NO [Compound 3b, 6-(camptothecin-7-ylmethyleneaminooxy)-hexanoic acid hydroxyamide]",IC50,HDAC1,43 nM
same,IC50,A2780,8 ± 2 nM
same,IC50,NCI-H460,23 ± 4 nM
same,IC80,NCI-H460; NCI-H460 cells,500 nM
same,IC50,A431,4 ± 1 nM
same,IC50,HDAC2,76.2 nM
same,accumulation of acetylated histone H4,Acetylated Histone H4,"less potent than 3d on both targets, particularly on H4"
same,IC50,Capan 1,6 ± 0.7 nM
same,RI (Resistance Index),A2780-Dx,31.7
same,IC50,A2780-Dx,270 ± 70 nM
same,IC50,HeLa,160 ± 40 nM
same,IC50,HDAC10,99.9 nM
same,IC50,HDAC6,3.87 nM
same,accumulation of acetylated tubulin,Acetylated Tubulin,less potent than 3d on both targets
"CC[C@@]1(O)C(=O)OCc2c1cc1n(c2=O)Cc2c-1nc1ccccc1c2C=NOCCCCCCNC(=O)CS [Compound 10, N-[camptothecin-7-yl-(methyleneaminooxy)-hexyl]-2-mercaptoacetamide]",IC50,A2780,210 ± 50 nM
same,melting point,,120 °C
same,IC50,NCI-H460,100 ± 10 nM
same,RI (Resistance Index),A2780-Dx,1.7
same,IC50,A2780-Dx,350 ± 100 nM
